Here are results for four compounds from patent US6759396B1, “Compositions based on a synergistic mixture of at least one VDR ligand and a retinoid” (Centre International de Recherches Dermatalogiques Galderma …, priority 1995, dated 2004).

Experiment [1] deals with RARγ receptors relative to RARα receptors. In words: dissociation constants for RAR receptors (standard tests from cited references). The format is binding, human. Conditions: selectivity for RARγ relative to RARα. Here is the method: The dissociation constants are determined by means of tests which are standard to those skilled in the art. These tests are described in particular in the following references: (1) “Selective Synthetic Ligands for Nuclear Retinoic Acid Receptor Subtypes” in RETINOIDS, Progress in Research and Clinical Applications, Chapter 19 (pp 261-267), Marcel Dekker Inc., published by Maria A. Livrea and Lester Packer; (2) “Synthetic Retinoids: Receptor Selectivity and Biological Activity” in Pharmacol. Skin, Basle, Karger, 1993, Volume 5, pp. 117-127; (3) “Selective Synthetic Ligands for Human Nuclear Retinoic Acid Receptors” in Skin Pharmacology, 1992, Vol. 5, pp. 57-65; (4) “Identification of Synthetic Retinoids with Selectivity for Human Nuclear Retinoic Acid Receptor-γ” in Biochemical and Biophysical Research Communications, Vol. 186, No. 2, July 1992, pp. 977-983; (5) “Selective High Affinity RAR-α or RAR-β Retinoic Acid Receptor Ligands” in Mol. Pharmacol., Vol. 40, pp. 556-562.
In an advantageous manner, the retinoids which are selective for the RARγ receptors relative to the RARα receptors have an RARα/RARγ dissociation constant ratio greater than or equal to 8.

For experiment [2], the system named is keratinocytes. In words: keratinocyte proliferation, XTT assay (Cell proliferation kit II). The format is cell-based. In general terms: Tetrazolium assays rely on reduction of a dye to a coloured formazan, in cell work by metabolically active cells.
Procedure: The keratinocytes were obtained from a specimen of skin obtained from plastic surgery. They are used at the second passage. The cells are cultured at 37° C. in a humid atmosphere in the presence of 5% CO2 according to the method of Rheinwald and Green in the presence of 3T3 fibroblasts treated with mitomycin in MEM medium containing 10% (v/v) foetal calf serum (FCS), 0.4 μg/ml of hydrocortisone, 10 ng/ml of EGF (epidermal growth factor) and 10^−9 M chloleratoxin. The 3T3 cells are inoculated 24 h before the keratinocytes at a rate of 15,000 cells per cm^2. Next, the keratinocytes are inoculated at a rate of 4000 cells per cm^2. […] After culturing for 4 days, the cells are harvested in order to determine the proliferation. The cell proliferation is determined using a kit with the reference name “Cell proliferation kit II” (XTT assay) used according to the indications of the manufacturer (Boehringer, ref. 1465 05). It is expressed in absorbance units at 495 nm. The lower the value of the absorbance measured, the more the keratinocyte proliferation has been inhibited.

The structures appear in SMILES notation.

Take `COc1ccc(-c2ccc3cc(C(=O)O)ccc3c2)cc1C12CC3CC(CC(C3)C1)C2` [6-[3-(1-adamantyl)-4-methoxyphenyl]-2-naphthoic acid]: in experiment [1], the “RARα/RARγ dissociation constant ratio” value is 84.4.
On to `O=C(O)c1ccc2cc(-c3ccc(O)c(C45CC6CC(CC(C6)C4)C5)c3)ccc2c1` [compound 1, 6-[3-(1-adamantyl)-4-hydroxyphenyl]-2-naphthoic acid], for which, in experiment [2] (in combination with 1,25-dihydroxyvitamin D3, 4 days culture, FIGS. 1 and 2), the “inhibition on keratinocyte proliferation” value is “very good inhibition”. For the same compound, the “RARα/RARγ dissociation constant ratio” value in experiment [1] was found to be 8.5.
Take `CC1=C(/C=C/C(C)=C/C=C/C(C)=C/C(=O)O)C(C)(C)CCC1` [all-trans retinoic acid, reference compound]: the “synergism of inhibition on keratinocyte proliferation” value in experiment [2] (in combination with 1,25-dihydroxyvitamin D3, identical conditions) is listed as “No synergism”.
On to `CC1(C)CCC(C)(C)c2cc(C(O)C#Cc3ccc(C(=O)O)c(O)c3)ccc21` (centres unmarked) [2-hydroxy-4-[3-hydroxy-3-(5,6,7,8-tetrahydro-5,5,8,8-tetramethyl-2-naphthyl)-1-propynyl]benzoic acid], for which, in experiment [1], the “RARα/RARγ dissociation constant ratio” value is on record as 36.6.
